Reference: paper PMC2701686 (Analytical biochemistry, 2008)

Target: thyroid hormone receptor β (TRβ) (Homo sapiens, UniProt P10828)
Assay: biochemical

Sequence of thyroid hormone receptor β (TRβ) (P10828 82-456): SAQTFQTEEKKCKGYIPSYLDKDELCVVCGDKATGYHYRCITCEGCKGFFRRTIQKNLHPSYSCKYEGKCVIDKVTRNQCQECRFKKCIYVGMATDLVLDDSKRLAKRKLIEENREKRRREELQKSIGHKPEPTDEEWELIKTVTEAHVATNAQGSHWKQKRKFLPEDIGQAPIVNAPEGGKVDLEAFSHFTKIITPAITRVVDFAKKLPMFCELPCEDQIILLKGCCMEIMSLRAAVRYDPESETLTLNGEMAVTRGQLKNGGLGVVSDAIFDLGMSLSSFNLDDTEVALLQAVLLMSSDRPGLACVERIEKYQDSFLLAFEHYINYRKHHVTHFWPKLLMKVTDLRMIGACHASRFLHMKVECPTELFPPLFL
Sequence of thyroid hormone receptor β (TRβ) (P19793 whole entry partner): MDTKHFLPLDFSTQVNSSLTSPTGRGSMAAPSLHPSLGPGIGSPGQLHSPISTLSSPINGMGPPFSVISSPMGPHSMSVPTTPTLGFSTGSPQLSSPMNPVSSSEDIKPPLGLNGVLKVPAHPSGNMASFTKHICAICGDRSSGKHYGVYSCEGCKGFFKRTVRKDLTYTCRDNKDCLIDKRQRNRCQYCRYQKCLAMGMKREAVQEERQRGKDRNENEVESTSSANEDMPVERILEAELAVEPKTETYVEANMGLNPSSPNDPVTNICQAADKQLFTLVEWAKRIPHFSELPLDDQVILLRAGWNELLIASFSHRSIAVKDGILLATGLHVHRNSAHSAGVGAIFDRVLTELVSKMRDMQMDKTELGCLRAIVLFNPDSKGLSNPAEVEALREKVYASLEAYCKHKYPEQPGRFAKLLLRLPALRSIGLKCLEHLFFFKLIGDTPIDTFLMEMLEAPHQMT
Sequence of thyroid hormone receptor β (TRβ) (Q60974 2057-2453 partner): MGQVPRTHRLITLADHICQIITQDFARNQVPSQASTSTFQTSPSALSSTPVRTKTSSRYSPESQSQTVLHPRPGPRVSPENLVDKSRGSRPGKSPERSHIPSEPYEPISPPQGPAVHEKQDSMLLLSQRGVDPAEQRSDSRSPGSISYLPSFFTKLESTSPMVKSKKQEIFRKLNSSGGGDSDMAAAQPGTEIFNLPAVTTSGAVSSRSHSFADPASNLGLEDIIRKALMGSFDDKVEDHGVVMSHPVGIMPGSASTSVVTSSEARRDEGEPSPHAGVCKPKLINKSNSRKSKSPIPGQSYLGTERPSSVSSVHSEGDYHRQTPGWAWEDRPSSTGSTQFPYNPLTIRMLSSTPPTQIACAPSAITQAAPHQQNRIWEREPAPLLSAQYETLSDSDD
Sequence of thyroid hormone receptor β (TRβ) (Q9Y6Q9 627-829 partner): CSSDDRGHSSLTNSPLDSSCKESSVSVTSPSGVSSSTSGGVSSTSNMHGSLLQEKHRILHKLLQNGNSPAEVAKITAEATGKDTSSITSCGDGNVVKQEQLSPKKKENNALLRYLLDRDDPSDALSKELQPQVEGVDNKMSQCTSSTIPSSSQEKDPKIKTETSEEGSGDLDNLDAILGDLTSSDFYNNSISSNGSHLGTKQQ

IC50: 1090 ± 80 nM
Compound: Cc1cc(OCC(=O)O)cc(C)c1Cc1cc(C#Cc2ccc([N+](=O)[O-])cc2)c(O)c(C(C)C)c1 [NH-3, {4-[4-hydroxy-3’-isopropyl-5-(4-nitrophenylethynyl)benzyl]-3,5-dimethylphenoxy}acetic acid]
